The target in test [1] is T1, Full length DGKα (D21-10BG, SignalChem) (Homo sapiens, UniProt P23743).
T1 construct: Full length DGKα (D21-10BG, SignalChem); purchased SignalChem D21-10BG
The test is described as follows: Biochemical DGK IC50 assay (ADP-Glo, lipid micelle substrate), DGKα. The settings on record: 1 hour preincubation, 1 hour reaction, room temperature. The gist of the method: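 ADP-Glo luminescence quantified ADP produced after a 1 h room-temperature reaction of full-length DGKα on DAG/PS micelles, in HEPES buffer containing MgCl2, CaCl2, vanadate, BSA and Tween-20. IC50 values derive from activity inhibition over a compound concentration series.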

The target in test [2] is T2, Full length DGKζ (in-house protein M1-V929) (Homo sapiens, UniProt Q13574).
T2 construct: His (N); TEV site (N); made in house; host or cells: Sf9 insect cells (Bac-to-Bac baculovirus)
The test is described as follows: Biochemical DGK IC50 assay (ADP-Glo, lipid micelle substrate), DGKζ. The following applies: 1 hour preincubation, 1 hour reaction, room temperature. A digest of the protocol:
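Enzyme: full-length human DGKζ M1-V929, produced in baculovirus-infected Sf9 cells; substrate DAG/PS micelles. Buffer 50 mM HEPES, 10 mM MgCl2, 0.01 mM CaCl2, 0.1 mM Na3VO4.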

T2 sequence (Q13574 1-929 isoform Q13574-4): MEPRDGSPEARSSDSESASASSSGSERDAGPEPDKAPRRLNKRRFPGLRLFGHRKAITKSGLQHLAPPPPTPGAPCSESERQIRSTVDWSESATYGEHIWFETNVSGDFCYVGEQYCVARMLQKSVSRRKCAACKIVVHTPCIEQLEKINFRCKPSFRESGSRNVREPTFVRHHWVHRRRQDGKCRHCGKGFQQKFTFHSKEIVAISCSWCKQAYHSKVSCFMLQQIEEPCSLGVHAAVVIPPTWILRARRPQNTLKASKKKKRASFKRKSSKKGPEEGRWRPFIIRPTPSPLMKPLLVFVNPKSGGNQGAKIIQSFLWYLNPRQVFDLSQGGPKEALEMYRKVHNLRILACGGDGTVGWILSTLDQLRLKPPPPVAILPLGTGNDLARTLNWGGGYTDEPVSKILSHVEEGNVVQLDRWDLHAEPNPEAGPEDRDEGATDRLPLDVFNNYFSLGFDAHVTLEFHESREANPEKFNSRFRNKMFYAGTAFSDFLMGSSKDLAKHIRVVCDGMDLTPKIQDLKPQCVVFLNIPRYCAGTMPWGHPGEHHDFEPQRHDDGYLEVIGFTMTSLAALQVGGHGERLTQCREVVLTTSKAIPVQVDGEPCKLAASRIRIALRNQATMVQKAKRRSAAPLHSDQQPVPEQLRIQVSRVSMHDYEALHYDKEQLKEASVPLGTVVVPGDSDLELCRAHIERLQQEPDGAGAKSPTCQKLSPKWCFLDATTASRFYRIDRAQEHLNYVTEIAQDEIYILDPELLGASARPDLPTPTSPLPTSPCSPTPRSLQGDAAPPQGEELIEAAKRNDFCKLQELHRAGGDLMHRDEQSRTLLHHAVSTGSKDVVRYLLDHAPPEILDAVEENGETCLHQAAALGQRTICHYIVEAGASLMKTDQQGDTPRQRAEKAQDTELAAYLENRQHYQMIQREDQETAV
T1 sequence (P23743 whole entry): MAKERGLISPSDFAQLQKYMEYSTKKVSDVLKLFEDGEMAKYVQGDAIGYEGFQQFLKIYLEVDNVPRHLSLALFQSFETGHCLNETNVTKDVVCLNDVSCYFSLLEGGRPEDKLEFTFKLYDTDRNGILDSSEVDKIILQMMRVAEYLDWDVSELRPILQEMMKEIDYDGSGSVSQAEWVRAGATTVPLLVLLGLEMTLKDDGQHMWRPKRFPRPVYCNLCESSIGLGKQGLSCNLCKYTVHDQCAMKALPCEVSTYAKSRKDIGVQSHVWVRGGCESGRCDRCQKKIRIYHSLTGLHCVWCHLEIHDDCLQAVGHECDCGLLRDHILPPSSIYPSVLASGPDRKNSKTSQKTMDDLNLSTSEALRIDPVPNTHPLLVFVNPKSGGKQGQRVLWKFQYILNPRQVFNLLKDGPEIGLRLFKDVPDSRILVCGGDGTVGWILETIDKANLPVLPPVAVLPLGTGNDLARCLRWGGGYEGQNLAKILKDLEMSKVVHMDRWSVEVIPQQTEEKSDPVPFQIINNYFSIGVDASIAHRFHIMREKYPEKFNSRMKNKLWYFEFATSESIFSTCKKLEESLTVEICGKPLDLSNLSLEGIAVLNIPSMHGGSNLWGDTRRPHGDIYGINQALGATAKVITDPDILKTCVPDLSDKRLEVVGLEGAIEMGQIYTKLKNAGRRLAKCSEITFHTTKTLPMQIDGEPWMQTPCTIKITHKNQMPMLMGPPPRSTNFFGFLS

`CC[C@@H]1CN(c2nc(=O)n(C)c3c2nc(CC#N)n3C)[C@@H](C)CN1C(C)c1ccc2c(c1)OC(C)(C)CO2` (single isomer, unassigned) [Compound A63b]: the IC50 (in general, the concentration that gives 50% inhibition) in test [1] came to 7.4 µM; in test [2], 22 nM.

For `CCn1c(CC#N)nc2c(N3C[C@@H](C)N(C(C)c4cccc(OC(C)C)c4)C[C@@H]3C)nc(=O)n(C)c21` (stereo partly drawn) [Compound A43, 2-(9-ethyl-6-((2S,5R)-4-(1-(3-isopropoxyphenyl)ethyl)-2,5-dimethylpiperazin-1-yl)-3-methyl-2-oxo-3,9-dihydro-2H-purin-8-yl)acetonitrile], the IC50 in test [1] was found to be 101 µM; in test [2] it was 79 nM.

On to `CCn1c(CC#N)nc2c(N3C[C@@H](C)N(C(C)c4ccc5nc(C)sc5c4)C[C@@H]3C)nc(=O)n(C)c21` (single isomer, unassigned) [Compound A56b], for which the IC50 was 50.9 µM in test [1] and 23 nM in test [2].

As to `CCn1c(CC#N)nc2c(N3C[C@@H](C)N(C(C)c4ccc5c(c4)OC(C)(C)CC5=O)C[C@@H]3C)nc(=O)n(C)c21` (stereo partly drawn) [Compound A81, 2-(6-((2S,5R)-4-(1-(2,2-dimethyl-4-oxochroman-7-yl)ethyl)-2,5-dimethylpiperazin-1-yl)-9-ethyl-3-methyl-2-oxo-3,9-dihydro-2H-purin-8-yl)acetonitrile], the IC50 in test [1] was more than 150 µM; in test [2] it was 7 nM.

Consider `CCn1c(CC#N)nc2c(N3C[C@@H](C)N(C(C)c4ccc(C(F)(F)F)c(C)c4)C[C@@H]3C)nc(=O)n(C)c21` (stereo partly drawn) [Compound A137, 2-(6-((2S,5R)-2,5-dimethyl-4-(1-(3-methyl-4-(trifluoromethyl)phenyl)ethyl)piperazin-1-yl)-9-ethyl-3-methyl-2-oxo-3,9-dihydro-2H-purin-8-yl)acetonitrile], for which the IC50 was 48.7 µM in test [1] and 64 nM in test [2].

For `CCn1c(CC#N)nc2c(N3C[C@@H](C)N(C(C)c4cc5c(cc4F)OC(C)(C)O5)C[C@@H]3C)nc(=O)n(C)c21` (single isomer, unassigned) [Compound A174a], the results for the IC50 in test [1] and in test [2] were 51.2 µM and 1030 nM, respectively.

On to `CCn1c(CC#N)nc2c(N3C[C@@H](C)N(C(C)c4ccc5c(c4)OC(C)(C)CC5)C[C@@H]3C)nc(=O)n(C)c21` (single isomer, unassigned) [Compound A94b], for which the concentration for half-maximal inhibition (IC50) in test [1] is more than 150 µM; in test [2], 532 nM.

As for `CC[C@H]1CN(C(C)c2ccc3ncc(C)nc3c2)[C@H](CC)CN1c1nc(=O)n(C)c2c1nc(CC#N)n2C` (single isomer, unassigned) [Compound A51b], the IC50 in test [1] was 22.3 µM; in test [2] it was 265 nM.

As for `CC(c1ccc2c(c1)OC(C)(C)CO2)N1C[C@H](C)N(c2c(F)c(=O)n(C)c3c2nc(CC#N)n3C)C[C@H]1C` (single isomer, unassigned) [Compound A19b], the IC50 in test [1] worked out at 6.94 µM; in test [2], 82 nM.

Consider `CC(OC(F)F)c1cc(F)ccc1C(C)N1C[C@H](C)N(c2nc(=O)n(C)c3c2nc(CC#N)n3C)C[C@H]1C` (single isomer, unassigned) [Compound A29a], for which the results for the IC50 in test [1] and in test [2] were more than 150 µM and 437 nM, respectively.

As to `CCn1c(CC#N)nc2c(N3C[C@@H](C)N(C(C)c4cccc(OC(C)C)n4)C[C@@H]3C)nc(=O)n(C)c21` (single isomer, unassigned) [Compound A117b], the values for the IC50 in test [1] and in test [2] were 145 µM and 75 nM, respectively.

In the case of `CCn1c(CC#N)nc2c(N3C[C@@H](C)N(C(C)c4ccc5c(c4)OC(C)(C)CC5)C[C@@H]3C)nc(=O)n(C)c21` (mixture of isomers) [Compound A94, 2-(6-((2S,5R)-4-(1-(2,2-dimethylchroman-7-yl)ethyl)-2,5-dimethylpiperazin-1-yl)-9-ethyl-3-methyl-2-oxo-3,9-dihydro-2H-purin-8-yl)acetonitrile], the figures for the IC50 in test [1] and in test [2] were 23.2 µM and 14 nM, respectively.

Consider `CCn1c(CC#N)nc2c(N3C[C@@H](C)N(C(C)c4ccnc(NC(C)C)c4)C[C@@H]3C)nc(=O)n(C)c21` (stereo partly drawn) [Compound A122, 2-(9-ethyl-6-((2S,5R)-4-(1-(2-(isopropylamino)pyridin-4-yl)ethyl)-2,5-dimethylpiperazin-1-yl)-3-methyl-2-oxo-3,9-dihydro-2H-purin-8-yl)acetonitrile], for which the results for the IC50 in test [1] and in test [2] were more than 150 µM and 834 nM, respectively.

Take `CCn1c(CC#N)nc2c(N3C[C@@H](C)N(C(C)c4ccc5c(c4)OC(C)(C)O5)C[C@@H]3C)nc(=O)n(C)c21` (single isomer, unassigned) [Compound A85b]: the IC50 in test [1] was 88.6 µM; in test [2], 14 nM.

On to `CC(c1ccc2nccnc2c1)N1C[C@H](C)N(c2cc(=O)n(C)c3c2nc(CC#N)n3C)C[C@H]1C` (stereo partly drawn) [Compound A1, 2-(7-((2S,5R)-2,5-dimethyl-4-(1-(quinoxalin-6-yl)ethyl)piperazin-1-yl)-3,4-dimethyl-5-oxo-4,5-dihydro-3H-imidazo[4,5-b]pyridin-2-yl)acetonitrile], for which the values for the IC50 in test [1] and in test [2] were 20.2 µM and 19 nM, respectively.

Take `CCn1c(CC#N)nc2c(N3C[C@@H](C)N(C(C)c4cc(Cl)c5c(c4)OC(C)(C)CO5)C[C@@H]3C)nc(=O)n(C)c21` (stereo partly drawn) [Compound A72, 2-(6-((2S,5R)-4-(1-(8-chloro-3,3-dimethyl-2,3-dihydrobenzo[b][1,4]dioxin-6-yl)ethyl)-2,5-dimethylpiperazin-1-yl)-9-ethyl-3-methyl-2-oxo-3,9-dihydro-2H-purin-8-yl)acetonitrile]: the 50% inhibitory concentration (IC50) in test [1] is more than 150 µM; in test [2], 64 nM.

Take `CCn1c(CC#N)nc2c(N3C[C@@H](C)N(C(C)c4cc(C(F)(F)F)ccn4)C[C@@H]3C)nc(=O)n(C)c21` (stereo partly drawn) [Compound A120, 2-(6-((2S,5R)-2,5-dimethyl-4-(1-(4-(trifluoromethyl)pyridin-2-yl)ethyl)piperazin-1-yl)-9-ethyl-3-methyl-2-oxo-3,9-dihydro-2H-purin-8-yl)acetonitrile]: the IC50 was more than 150 µM in test [1] and 1280 nM in test [2].

For `CCn1c(CC#N)nc2c(N3C[C@@H](C)N(C(C)c4cccc(C(C)C)c4)C[C@@H]3C)nc(=O)n(C)c21` (single isomer, unassigned) [Compound A108b], the IC50 in test [1] amounted to 95.8 µM; in test [2], 822 nM.

For the molecule `CCn1c(CC#N)nc2c(N3C[C@@H](C)N(C(C)c4ccc(CN5CCOCC5)cc4)C[C@@H]3C)nc(=O)n(C)c21` (stereo partly drawn) [Compound A139, 2-(6-((2S,5R)-2,5-dimethyl-4-(1-(4-(morpholinomethyl)phenyl)ethyl)piperazin-1-yl)-9-ethyl-3-methyl-2-oxo-3,9-dihydro-2H-purin-8-yl)acetonitrile], the IC50 in test [1] turned out to be 120 µM; in test [2], 2190 nM.

As for `CCn1c(CC#N)nc2c(N3C[C@@H](C)N(C(C)c4ccc(F)c5c4OC(C)(C)O5)C[C@@H]3C)nc(=O)n(C)c21` (single isomer, unassigned) [Compound A185b], the IC50 stood at 82.5 µM in test [1] and 20 nM in test [2].

As for `COC[C@H]1CN(C(C)c2ccc3ncc(C)nc3c2)[C@H](C)CN1c1nc(=O)n(C)c2c1nc(CC#N)n2C` (single isomer, unassigned) [Compound A13a], the IC50 in test [1] was more than 150 µM; in test [2], 5060 nM.

Regarding `COC[C@H]1CN(C(C)c2ccc3c(c2)OCCO3)[C@H](C)CN1c1nc(=O)n(C)c2c1nc(CC#N)n2C` (single isomer, unassigned) [Compound A11a], the figures for the IC50 in test [1] and in test [2] were 57.8 µM and 764 nM, respectively.

On to `CCn1c(CC#N)nc2c(N3C[C@@H](C)N(C(C)c4cc5c(cc4F)OC(C)(C)CO5)C[C@@H]3C)nc(=O)n(C)c21` (single isomer, unassigned) [Compound A156a], for which the IC50 was 68.6 µM in test [1] and 496 nM in test [2].

As for `CC(c1ccc(C(F)(F)F)cn1)N1C[C@H](C)N(c2nc(=O)n(C)c3c2nc(CC#N)n3C)C[C@H]1C` (single isomer, unassigned) [Compound A148b], the IC50 in test [1] is 0.666 µM; in test [2], 176 nM.

Consider `CC[C@H]1CN(C(C)c2ccc3c(c2)OC(C)(C)CO3)[C@H](CC)CN1c1nc(=O)n(C)c2c1nc(CC#N)n2C` (single isomer, unassigned) [Compound A64b], for which the IC50 turned out to be 4.75 µM in test [1] and 14 nM in test [2].

With `Cc1ccc(C(C)N2C[C@H](C)N(c3cc(=O)n(C)c4c3nc(CC#N)n4C)C[C@H]2C)cc1` (single isomer, unassigned) [Compound A5a], the IC50 amounted to 5.77 µM in test [1] and 878 nM in test [2].

Turning to `CCn1c(CC#N)nc2c(N3C[C@@H](C)N(C(C)c4ccc5c(c4F)OC(C)(C)O5)C[C@@H]3C)nc(=O)n(C)c21` (single isomer, unassigned) [Compound A175b], the IC50 in test [1] is 21.4 µM; in test [2] it was 4 nM.

`CCCn1c(CC#N)nc2c(N3C[C@@H](C)N(C(C)c4ccc5c(c4)OC(C)(C)CO5)C[C@@H]3C)nc(=O)n(C)c21` (stereo partly drawn) [Compound A88, 2-(6-((2S,5R)-4-(1-(3,3-dimethyl-2,3-dihydrobenzo[b][1,4]dioxin-6-yl)ethyl)-2,5-dimethylpiperazin-1-yl)-3-methyl-2-oxo-9-propyl-3,9-dihydro-2H-purin-8-yl)acetonitrile]: the IC50 was found to be 111 µM in test [1] and 4 nM in test [2].

Take `CC[C@H]1CN(C(C)c2ccc3c(c2)OC(C)(C)CO3)[C@H](CC)CN1c1nc(=O)n(C)c2c1nc(CC#N)n2CC` (stereo partly drawn) [Compound A67, 2-(6-((2S,5R)-4-(1-(3,3-dimethyl-2,3-dihydrobenzo[b][1,4]dioxin-6-yl)ethyl)-2,5-diethylpiperazin-1-yl)-9-ethyl-3-methyl-2-oxo-3,9-dihydro-2H-purin-8-yl)acetonitrile]: the values for the half-inhibitory concentration (IC50) in test [1] and in test [2] were 118 µM and 10 nM, respectively.

These data come from US20260125378A2, “Heterocyclic Compounds” (BeOne Medicines I GmbH, priority 2023, published 2026).
